The NIST ThermoML archive (doi:10.1016/j.jct.2010.11.011)
± gives the expanded uncertainty stated by the source.

Columns and labels:
[1] = for mass density: 293 K, 101.33 kPa, Flotation in CCl4 and Heptane; for Triple point temperature: DTA
[2] = Molar enthalpy of transition or fusion; details: DSC

Structure (SMILES)	mass density ([1]; Crystal 2)	Triple point temperature ([1]; Crystal 1)	Molar enthalpy of transition or fusion ([2]; Crystal 1)	mass density ([1]; Crystal)	Triple point temperature ([1]; Crystal)	Molar enthalpy of transition or fusion ([2]; Crystal)
CCCCCCCCCCCC(=O)[O-].[Li+] [lithium dodecanoate]	1060 ± 40 kg/m3	501.95 ± 1.8 K	6.26 ± 1.36 kcal/mol			
CCCCCCCCCCCCCCCC(=O)[O-].[Li+] [lithium hexadecanoate]	1050 ± 40 kg/m3	500.89 ± 2.8 K	3.77 ± 1.2 kcal/mol			
CCCCCCCCC(=O)[O-].[Li+] [lithium nonanoate]	1120 ± 50 kg/m3	524.1 ± 1.2 K	5.4 ± 0.406 kcal/mol			
CCCCCCCC(=O)[O-].[Li+] [lithium octanoate]				1080 ± 40 kg/m3	536.8 ± 0.7 K	5.6 ± 0.227 kcal/mol
CCCCCCCCCCCCCCC(=O)[O-].[Li+] [lithium pentadecanoate]	1100 ± 40 kg/m3	501.25 ± 0.39 K	3.86 ± 0.263 kcal/mol			
CCCCCCCCCCC(=O)[O-].[Li+] [lithium undecanoate]	1120 ± 50 kg/m3				507.27 ± 3.1 K	5.85 ± 0.203 kcal/mol

More lines, now with the values ahead:

mass density ([1]; Crystal 2)	Triple point temperature ([1]; Crystal 1)	Molar enthalpy of transition or fusion ([2]; Crystal 1)	mass density ([1]; Crystal)	Triple point temperature ([1]; Crystal)	Molar enthalpy of transition or fusion ([2]; Crystal)	Structure (SMILES)
1080 ± 40 kg/m3	516.6 ± 1.3 K	5.92 ± 1.43 kcal/mol				CCCCCCCCCC(=O)[O-].[Li+] [lithium decanoate]
1090 ± 40 kg/m3	498.85 ± 0.59 K	3.2 ± 0.502 kcal/mol				CCCCCCCCCCCCCCCCC(=O)[O-].[Li+] [lithium heptadecanoate]
1080 ± 40 kg/m3	496.35 ± 1.2 K	3.69 ± 1.17 kcal/mol				CCCCCCCCCCCCCCCCCCC(=O)[O-].[Li+] [lithium nonadecanoate]
1040 ± 40 kg/m3	499.85 ± 0.59 K	4.05 ± 0.311 kcal/mol				CCCCCCCCCCCCCCCCCC(=O)[O-].[Li+] [lithium octadecanoate]
1050 ± 40 kg/m3	502.4 ± 1 K	6.06 ± 8.6 kcal/mol				CCCCCCCCCCCCCC(=O)[O-].[Li+] [lithium tetradecanoate]
1100 ± 40 kg/m3	504.27 ± 0.4 K	3.32 ± 0.55 kcal/mol				CCCCCCCCCCCCC(=O)[O-].[Li+] [lithium tridecanoate]
